Data as given in patent publication US5045566A, “Novel imidate insecticides” (ICI Americas Inc., priority 1989, dated 1991).

What was measured:
Type in all cases: in vivo
[1] = tested on: Cabbage Looper [Trichoplusia ni (Hubner)]; assay: Cabbage looper leaf dip (CL), 3-5 days; details: percent in solution, second-instar larvae
Procedure: (§1) The compounds in Tables 1 and 2 above were tested for insecticidal activity using the following testing procedures. LC50 values, based on the results of these tests and calculated according to dosage-mortality curves, are expressed in Table 3.
Cabbage Looper [Trichoplusia ni (Hubner)]:
Test compounds were diluted in a 50-50 acetone-water solution. Cotyledons of hyzini squash (Calabacita abobrinha), approximately 1×1.5 inches, were immersed in the test solutions for 2-3 seconds and placed on a wire screen to dry. The dried leaves were placed in petri dishes containing a moistened piece of filter paper and infested with 5 second-instar cabbage looper larvae. The dishes were placed in a high humidity chamber. Mortality of the larvae was recorded 3-5 days later. Test concentrations ranged from 0.1% downward. The LC-50 value is expressed below in Table 3 under the heading "CL" in terms of percent of the test compound in solution.

[2] = tested on: Housefly [Musca domestica]; assay: Housefly contact mortality in dishes (HF), 48 hours; details: μg of test compound per 25 female flies
Procedure: as §1
Housefly [Musca domestica]:
Test compounds were diluted in acetone and aliquots pipetted onto the bottom of aluminum dishes. To ensure even spreading of the chemical on the bottom of the dishes, 1 ml of acetone containing 0.01% peanut oil was also added to each dish. After all solvents had evaporated, the dishes were placed in circular cardboard cages containing 25 female houseflies, 1-2 days old. The cages were covered on the bottom with cellophane and on the top with tulle netting, and each contained a sugar-water saturated cotton plug for maintenance of the flies. Mortality was recorded after 48 hours. Test levels ranged from 100 μg/25 female houseflies downward. The LC-50 value is expressed below in Table 3 under the heading "HF", in terms of μg of the test compound per 25 female flies.

[3] = tested on: Tobacco Budworm [Heliothis virescens (Fabricius)] eggs; assay: Tobacco budworm eggs (TBW-E); details: percent in solution; 2-day old eggs
Procedure: as §1
Tobacco Budworm [Heliothis virescens (Fabricius)]:
(b). Eggs: Paper towel patches of 2-day old eggs of the tobacco budworm were dipped in acetone solutions of the test compound and placed in petri dishes containing a portion of larval rearing medium. Treated eggs were maintained at 78° F. and mortality was recorded after all control eggs had hatched and the young larvae were feeding on the media. Test concentrations ranged from 0.1% downward. The LC-50 value is expressed below in Table 3 under the heading "TBW-E" in terms of percent of the test compound in the solution.

SMILES	LC50 CL [1]	LC50 HF [2]	LC50 TBW E (eggs) [3]
CCC(C)C(=Nc1ccc(Cl)cc1)OCc1cccc(Oc2ccccc2)c1 (stereo not drawn) [Compound 26]	0.007%	> 100 µg	> 0.1%
CC(Cl)C(=Nc1ccc(Cl)c(Cl)c1)OCc1cccc(Oc2ccccc2)c1 (stereo not drawn) [Compound 27]	0.04%	> 100 µg	> 0.1%
CCC(=Nc1cccc(Cl)c1Cl)OCc1cccc(Oc2ccccc2)c1 [Compound 28]	0.009%	> 100 µg	> 0.1%
CCC(=Nc1ccc(Cl)c(Cl)c1)OCc1cccc(Oc2ccccc2)c1 [Compound 36]	0.024%	20 µg	> 0.1%
CCCC(=Nc1ccc(Cl)c(Cl)c1)OCc1cccc(Oc2ccccc2)c1 [Compound 38]	0.006%	33 µg	0.05%
CCC(C)C(=Nc1ccc(Cl)c(Cl)c1)OCc1cccc(Oc2ccccc2)c1 (stereo not drawn) [Compound 39]	0.0023%	> 100 µg	> 0.1%
CC(C)C(=Nc1ccc(Cl)c(Cl)c1)OCc1cccc(Oc2cccc(F)c2)c1 [Compound 40]	0.0025%	36 µg	0.08%
CCC(=Nc1ccc(F)cc1F)OCc1cccc(Oc2ccccc2)c1 [Compound 59]	0.02%	25 µg	> 0.1%
COc1ccc(N=C(OCc2cccc(Oc3ccc(F)cc3)c2)C(C)C)cc1Cl [Compound 110]	0.007%	26 µg	0.04%
CC(C)C(=Nc1cccc(Oc2ccccn2)c1)OCc1cccc(Oc2ccccc2)c1 [Compound 114]	< 0.1%	92 µg	
CCC(=Nc1ccc(F)c(Cl)c1)OCc1cccc(Oc2ccc(F)cc2)c1 [Compound 115]	0.0012%	10 µg	0.075%
CC(Br)C(=Nc1ccc(F)c(Cl)c1)OCc1cccc(Oc2ccccc2)c1 (stereo not drawn) [Compound 118]	0.0013%	18 µg	> 0.1%
CCCCC(=Nc1ccc(F)c(Cl)c1)OCc1cccc(Oc2ccccc2)c1 [Compound 121]	0.1%	> 100 µg	> 0.1%
CCCC(=Nc1ccc(F)c(Cl)c1)OCc1cccc(Oc2ccccc2)c1 [Compound 123]	0.012%	> 100 µg	> 0.1%
CC(C)C(=Nc1cccc(C#N)c1)OCc1cccc(Oc2ccccc2)c1 [Compound 126]	0.08%	> 100 µg	> 0.1%
CC(=O)c1cccc(N=C(OCc2cccc(Oc3ccccc3)c2)C(C)C)c1 [Compound 170]	0.1%	37 µg	> 0.1%
CCOc1cccc(N=C(OCc2cccc(Oc3ccccc3)c2)C(C)C)c1 [Compound 171]	0.01%	80 µg	> 0.1%
CC(C)C(=Nc1ccc2c(c1)OC(C)(C)O2)OCc1cccc(Oc2ccccc2)c1 [Compound 182]	0.0006%	28 µg	0.04%
CC(C)C(=Nc1ccc2c(c1)OCO2)OCc1cccc(Oc2ccccc2F)c1 [Compound 183]	0.00075%	10 µg	0.075%
CCCC(=Nc1ccc(OC)cc1)OCc1cccc(Oc2ccccc2)c1 [Compound 184]	0.024%	61 µg	> 0.1%
CCC(C)C(=Nc1ccc2c(c1)OCO2)OCc1cccc(Oc2ccccc2)c1 (stereo not drawn) [Compound 185]	0.0006%	13 µg	0.075%
CC(C)C(=Nc1ccc2c(c1)OCO2)OCc1cccc(Oc2ccccc2F)c1 [Compound 190]	0.0004%	7.5 µg	0.023%
CC(C)C(=Nc1cccc(C(F)(F)F)c1)OCc1cccc(Oc2cccc(F)c2)c1 [Compound 192]	0.0012%	25 µg	0.07%

SMILES	LC50 CL [1]	LC50 HF [2]	LC50 TBW E (eggs) [3]
CC(C)C(=Nc1ccc(Cl)c(C(F)(F)F)c1)OCc1cccc(Oc2cccc(F)c2)c1 [Compound 195]	0.002%	> 100 µg	> 0.1%
CC(C)C(=Nc1ccc(F)cc1)OCc1cccc(Oc2ccc(F)cc2)c1 [Compound 197]	0.0004%	> 100 µg	0.05%
CC(C)C(=Nc1cccc(F)c1)OCc1cccc(Oc2ccc(F)cc2)c1 [Compound 200]	0.00075%	7.5 µg	0.1%
COc1cccc(N=C(OCc2cccc(Oc3ccc(F)cc3)c2)C(C)C)c1 [Compound 201]	0.004%	15 µg	> 0.1%
CC(C)C(=Nc1ccc(Cl)c(Cl)c1)OCc1cccc(Oc2cccc(Cl)c2)c1 [Compound 207]	0.008%	> 100 µg	> 0.1%
CC(C)C(=Nc1ccc(F)c(F)c1)OCc1cccc(Oc2ccc(Br)cc2)c1 [Compound 275]	0.00012%	21 µg	0.045%
CC(C)C(=Nc1ccc(F)c(Br)c1)OCc1cccc(Oc2ccc(Br)cc2)c1 [Compound 276]	0.002%	39 µg	0.1%
CC(C)C(=Nc1ccc(C2CCCCC2)cc1)OCc1cccc(Oc2ccc(F)cc2)c1 [Compound 280]	0.024%	> 100 µg	> 0.1%
CC(C)C(=Nc1ccc(C(F)(F)F)cc1)OCc1ccc(F)c(Oc2ccc(F)cc2)c1 [Compound 287]	0.0025%	> 100 µg	> 0.1%
CC(C)C(=Nc1cccc(OC(F)(F)C(F)F)c1)OCc1cccc(Oc2ccc(F)cc2)c1 [Compound 288]	0.0015%	> 100 µg	> 0.1%
CCC(CC)C(=Nc1ccc(Cl)cc1)OCc1cccc(Oc2ccc(F)cc2)c1 [Compound 290]	0.017%	> 100 µg	> 0.1%
CCC(CC)C(=Nc1cccc(C(F)(F)F)c1)OCc1cccc(Oc2ccc(F)cc2)c1 [Compound 291]	0.004%	> 100 µg	> 0.1%
CC(Br)C(=Nc1ccc(F)c(Cl)c1)OCc1cccc(Oc2ccc(F)cc2)c1 (stereo not drawn) [Compound 305]	0.048%	> 100 µg	> 0.1%
CC(C)C(=Nc1ccc(C(C)(C)C)c(Cl)c1)OCc1cccc(Oc2ccc(F)cc2)c1 [Compound 308]	0.009%	> 100 µg	> 0.1%
CC(C)(F)C(=Nc1ccc(F)c(Cl)c1)OCc1cccc(Oc2ccc(F)cc2)c1 [Compound 309]	0.00017%	> 100 µg	0.07%
CC(C)C(=Nc1ccc(Cl)cc1Cl)OCc1cccc(Oc2ccccc2)c1 [Compound 311]	0.0017%	22 µg	0.1%
CC(C)C(=Nc1ccc(Cl)cc1Cl)OCc1cccc(Oc2ccc(F)cc2)c1 [Compound 312]	0.006%	> 100 µg	> 0.1%
CC(C)C(=Nc1ccc2c(c1)OCO2)OCc1ccc(F)c(Oc2ccc(Cl)cc2)c1 [Compound 313]	0.00025%	> 100 µg	0.013%
CCC(C)C(=Nc1ccc(C(C)C)cc1)OCc1cccc(Oc2ccccc2)c1 (stereo not drawn) [Compound 317]	0.0045%	> 100 µg	0.03%
CC(C)(F)C(=Nc1ccc(F)c(F)c1)OCc1cccc(Oc2ccc(F)cc2)c1 [Compound 318]	0.0007%	19 µg	> 0.1%
CC(C)(F)C(=Nc1cccc(C(F)(F)F)c1)OCc1cccc(Oc2ccc(F)cc2)c1 [Compound 319]	0.0007%	44 µg	> 0.1%
CCC(=Nc1ccc(C(C)C)cc1)OCc1cccc(Oc2ccc(F)cc2)c1 [Compound 320]	0.0075%	> 100 µg	> 0.1%
CC(C)C(=Nc1ccc(F)c(Cl)c1)OC(F)c1cccc(Oc2ccc(F)cc2)c1 (stereo not drawn) [Compound 502]		80 µg	
